Earlier results, collected in patent USRE42412E1, “Materials and methods for the treatment of gastroesophageal reflux disease” (ARYx Therapeutics, Inc., priority 2000, dated 2011).

Assays:
[1] = of a dose of cisapride
[2] = between July 1993 and December 1999
5HT4 receptors = 5HT4 receptors (Homo sapiens, UniProt Q13639)
Sequence of 5HT4 receptors (Q13639 whole entry): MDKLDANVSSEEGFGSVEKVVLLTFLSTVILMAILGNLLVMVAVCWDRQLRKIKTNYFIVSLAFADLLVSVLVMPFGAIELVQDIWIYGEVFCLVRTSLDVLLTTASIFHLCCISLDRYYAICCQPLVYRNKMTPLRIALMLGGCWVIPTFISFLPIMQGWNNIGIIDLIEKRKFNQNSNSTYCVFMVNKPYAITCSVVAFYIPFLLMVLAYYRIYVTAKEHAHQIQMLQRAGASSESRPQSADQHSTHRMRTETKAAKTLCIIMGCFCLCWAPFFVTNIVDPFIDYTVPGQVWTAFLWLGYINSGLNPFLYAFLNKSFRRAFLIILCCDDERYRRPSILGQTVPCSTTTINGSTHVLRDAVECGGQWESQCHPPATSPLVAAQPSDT

Structure (SMILES): COc1cc(N)c(Cl)cc1C(=O)NC1CCN(CCCOc2ccc(F)cc2)CC1OC (stereo not shown) [cisapride]
- fraction of dose metabolized by oxidative N-dealkylation at the piperidine nitrogen or aromatic hydroxylation [1]: More than 90%
- deaths reported [2]: 80
- serious cardiac arrhythmias reportedly associated ([2]; ventricular tachycardia, ventricular fibrillation, torsades de pointes, QT prolongation): at least 341
- ligand potency at 5HT4 receptors (5HT4 receptors): potent ligand
